Experimental findings from US11254696B2, “Dianilinopyrimidine compound for inhibiting kinase activity” (Shenzhen Targetrx, Inc., priority 2017, dated 2022) are described below.

Data set [1] in a line: Metabolic stability in rat liver microsomes. It is filed as in vitro ADME. The following applies: SD, pH 7.4, 1 μM compound, 0.5 mg/mL protein; for microsomal CLint at 1 μM: read-out: CLint (uL/min/mg), Rat liver microsome experiment; for half-life at 1 μM: read-out: t1/2 (min), Rat liver microsome experiment. On the procedure:
(§1) Experiments in microsomes: Human liver microsomes: 0.5 mg/mL, Xenotech; Rat liver microsomes: 0.5 mg/mL, Xenotech; Coenzyme (NADPH/NADH): 1 mM, Sigma Life Science; Magnesium chloride: 5 mM, 100 mM phosphate buffer (pH 7.4).
(§2) Preparation of stock solution: Powder of the example compounds was accurately weighed and dissolved in DMSO to 5 mM. Preparation of phosphate buffer (100 mM, pH7.4): A pre-formulated 0.5M potassium dihydrogen phosphate (150 mL) was mixed with 0.5M dibasic potassium phosphate (700 mL). The pH of the mixture was adjusted to 7.4 with 0.5M dibasic potassium phosphate solution. The mixture was diluted 5-fold with ultrapure water before use, and magnesium chloride was added to obtain a phosphate buffer (100 mM) containing 100 mM potassium phosphate, 3.3 mM magnesium chloride, pH7.4. A NADPH regeneration system solution (containing 6.5 mM NADP, 16.5 mM G-6-P, 3 U/mL G-6-PD, 3.3 mM magnesium chloride) was prepared and placed on wet ice prior to use. Preparation of stop solution: acetonitrile solution containing 50 ng/mL propranolol hydrochloride and 200 ng/mL tolbutamide (internal standard). 25057.5 μL of phosphate buffer (pH 7.4) was taken into a 50 mL centrifuge tube, to which 812.5 μL human liver microsomes were added, and mixed to obtain a liver microsome dilution solution with a protein concentration of 0.625 mg/mL. 25057.5 μL of phosphate buffer (pH 7.4) was taken into a 50 mL centrifuge tube, to which 812.5 μL SD rat liver microsomes were added, and mixed to obtain a liver microsome dilution solution with a protein concentration of 0.625 mg/mL.
(§3) Incubation of the samples: The stock solution of the respective compound was respectively diluted to 0.25 mM with an aqueous solution containing 70% acetonitrile, and used as a working solution, ready for use. 398 μL of the dilution solution of human liver microsomes or rat liver microsome were added to a 96-well incubation plate (N=2), respectively, and 2 μL of 0.25 mM working solution was added and mixed.
(§4) Metabolic stability assay: 300 μL of pre-chilled stop solution was added to each well of a 96-well deep well plate and placed on ice as a stop plate. The 96 well incubation plate and NADPH regeneration system were placed in a 37° C. water bath box, shaken at 100 rpm and pre-incubated for 5 min. 80 μL of incubation solution was taken out from each well of the incubation plate and added to the stop plate, mixed, and replenished with 20 μL of NADPH regeneration system solution as a 0-min sample. 80 μL of NADPH regeneration system solution was added to each well of the incubation plate to start the reaction and start counting. […] Separately, 100 μL of the reaction solution was taken at 10, 30, and 90 min reaction, respectively, added to a stop plate, and vortexed for 3 minutes to terminate the reaction. The stop plate was centrifuged at 5000×g at 4° C. for 4 min. 100 μL of the supernatant was added to a 96-well plate to which 100 μL of distilled water was previously added, mixed, and analyzed by LC-MS/MS.
(§5) Data analysis: The peak areas of the corresponding compound and internal standard were detected by LC-MS/MS system, and the ratio of the peak area of the compound to the internal standard was calculated.
For orientation: Liver microsomes are vesicles of endoplasmic reticulum, rich in cytochrome P450 enzymes.

Data set [2] relates to ALK[L1196M] (Ba/F3). The data set can be described thus: Cytotoxicity test (CellTiter-Glo), BaF3 EML4-ALK L1196M. It counts as cell-based. Conditions: Ba/F3 cells. How it is done:
(§6) The in vitro anti-proliferative activity of the compounds of the present disclosure against three types of cells that are cultured in vitro was tested by CellTiter-Glo method.
(§7) Cell lines: BaF3 parental; BaF3 [EML4-ALK] (From WuXi PharmaTech) and BaF3 [EMF4-AFK F1196M] (From WuXi PharmaTech); wherein, BaF3 parental was cultured in RPMI1640 medium containing 10 ng/ml IL-3, 10% fetal bovine serum, 100 U/ml penicillin, and 100 μg/ml streptomycin, BaF3 [EMF4-AFK] and BaF3 [EMF4-AFK F1196M] were cultured in RPMI1640 medium containing 10% fetal bovine serum, 100 U/ml penicillin, and 100 μg/ml streptomycin.
(§8) Reagents and materials: RPMI-1640 (GIBCO, Cat. No. A10491-01); fetal bovine serum (GIBCO, Cat. No. 10099141); 0.25% trypsin-EDTA (GIBCO, Cat. No. 25200); penicillin-streptomycin, liquid (GIBCO, Cat. No. 15140-122); DMSO (Sigma, Cat. No. D2650); CellTiter-Glo Test Kit (Promega, Cat. No. G7572), and 96-well plate (Corning, Cat. No. 3365).
(§9) 1. The test compounds were dissolved in DMSO to make stock solutions and subjected to a series gradient dilution to give solutions with 10-fold working concentration.
(§10) 2. The cells in the logarithmic growth phase were diluted with the culture solution to adjust to the specific cell concentration, 90 μi of cell suspension was added to the 96-well plate to make the cell density reach the specified concentration. The plate was incubated in a incubator at 37° C., containing 5% carbon dioxide gas overnight.
(§11) 3. 10 μl drug solutions were added to each well of the 96-well plate inoculated with cells. 10 concentrations of the compounds were tested starting from the highest concentration of 20 μM with a 3-fold series gradient dilution in duplicate.
(§12) 4. After continuously cultured for 72 hours, the cells were detected by CellTiter-Glo for the cell viability. The dose-effect curve was made using GraphPad Prism software and IC50 was calculated.
For orientation: ATP-based viability assays read luminescence as a measure of living cells.

Data set [3] concerns the target T1, ALK[L1196M] (Ba/F3) (Homo sapiens, UniProt Q9UM73, L1196M, cells depend on it).
T1 construct: IC50(nM) ALK[L1196M]; (Ba/F3); other: 72 hours, CellTiter-Glo; BaF3 [EMF4-AFK F1196M]; fused on or other part: Q9HC35 (Echinoderm microtubule-associated protein-like 4)
The data set is described as above. It is filed as cell-based. The following applies: 72 hours, CellTiter-Glo; read-out: IC50(nM) ALK[L1196M] (Ba/F3). How it is done:
as §6, §7, §8, §9, §10, §11, §12

The nature of data set [4]: Metabolic stability in human liver microsomes. It is filed as in vitro ADME. Conditions: pH 7.4, 1 μM compound, 0.5 mg/mL protein; for microsomal CLint at 1 μM: read-out: CLint (uL/min/mg), Human liver microsome experiment; for half-life at 1 μM: read-out: t1/2 (min), Human liver microsome experiment. How it is done: as §1, §2, §3, §4, §5
The target in data set [5] is ALK [L1196M] (Homo sapiens, UniProt Q9UM73, L1196M). The data set can be described thus: Kinase inhibition assay, ALK [L1196M]. It counts as biochemical. On the procedure: (§13) Compound preparation: The test compounds were dissolved in DMSO to make 20 mM stock solutions. The compounds were diluted in DMSO to 0.1 mM (a dilution with 100 times the final concentration) before use, and a 3-fold series gradient dilution with 11 concentrations was made. Dilutions with 4 times of the final concentration were prepared by diluting with buffer when dosing.
Chain of ALK [L1196M] (Q9UM73 19-1620 L1196M): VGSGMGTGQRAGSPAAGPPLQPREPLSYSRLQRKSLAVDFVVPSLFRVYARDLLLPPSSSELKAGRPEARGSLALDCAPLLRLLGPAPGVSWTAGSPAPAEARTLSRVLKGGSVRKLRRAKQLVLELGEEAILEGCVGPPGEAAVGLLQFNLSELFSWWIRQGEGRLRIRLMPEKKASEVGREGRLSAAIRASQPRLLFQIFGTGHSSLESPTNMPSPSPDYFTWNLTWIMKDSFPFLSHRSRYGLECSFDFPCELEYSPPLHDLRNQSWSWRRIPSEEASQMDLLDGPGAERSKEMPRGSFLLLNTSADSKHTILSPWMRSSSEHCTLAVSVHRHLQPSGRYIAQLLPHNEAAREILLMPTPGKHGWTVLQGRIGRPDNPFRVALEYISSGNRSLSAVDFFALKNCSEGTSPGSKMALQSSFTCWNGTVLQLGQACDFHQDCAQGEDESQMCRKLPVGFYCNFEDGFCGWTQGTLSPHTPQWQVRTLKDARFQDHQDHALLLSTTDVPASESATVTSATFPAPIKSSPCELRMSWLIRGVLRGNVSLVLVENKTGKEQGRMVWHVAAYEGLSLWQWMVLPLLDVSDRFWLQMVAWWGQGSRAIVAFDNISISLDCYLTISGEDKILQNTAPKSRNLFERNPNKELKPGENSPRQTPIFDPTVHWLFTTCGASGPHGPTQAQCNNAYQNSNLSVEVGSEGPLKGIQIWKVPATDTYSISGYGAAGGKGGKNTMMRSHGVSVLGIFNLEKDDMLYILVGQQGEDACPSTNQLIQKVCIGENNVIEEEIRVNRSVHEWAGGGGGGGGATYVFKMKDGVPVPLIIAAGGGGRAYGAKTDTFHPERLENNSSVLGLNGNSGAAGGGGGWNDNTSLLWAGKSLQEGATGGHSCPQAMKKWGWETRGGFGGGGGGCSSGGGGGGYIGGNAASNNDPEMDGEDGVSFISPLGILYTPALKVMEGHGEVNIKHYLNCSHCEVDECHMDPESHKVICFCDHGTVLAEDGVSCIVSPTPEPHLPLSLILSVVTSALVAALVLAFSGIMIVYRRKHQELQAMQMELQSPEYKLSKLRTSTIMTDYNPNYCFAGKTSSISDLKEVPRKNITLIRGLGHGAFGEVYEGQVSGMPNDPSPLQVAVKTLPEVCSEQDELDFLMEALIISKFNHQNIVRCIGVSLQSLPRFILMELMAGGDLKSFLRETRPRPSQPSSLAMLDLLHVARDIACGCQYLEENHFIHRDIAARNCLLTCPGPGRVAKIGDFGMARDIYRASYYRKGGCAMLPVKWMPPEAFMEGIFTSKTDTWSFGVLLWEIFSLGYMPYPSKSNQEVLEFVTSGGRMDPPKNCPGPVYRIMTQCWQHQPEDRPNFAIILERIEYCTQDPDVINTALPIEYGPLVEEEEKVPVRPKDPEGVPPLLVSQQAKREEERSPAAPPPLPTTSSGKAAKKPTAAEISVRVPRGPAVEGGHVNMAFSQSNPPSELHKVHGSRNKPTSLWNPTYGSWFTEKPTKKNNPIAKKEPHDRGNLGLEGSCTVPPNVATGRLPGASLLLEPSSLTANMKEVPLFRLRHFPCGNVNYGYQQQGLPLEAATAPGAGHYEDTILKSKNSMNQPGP
(§14) Kinase assay: after preparing the buffer solution, the enzyme was mixed with pre-diluted compounds with different concentrations, and placed at room temperature for 30 minutes in duplicate. The corresponding substrate and ATP were added thereto and reacted at room temperature for 60 minutes (both a negative and a positive control were set). After the reaction, antibody was added for detection, and after incubation at room temperature for 60 minutes, Evnvision detection was carried out, and data was collected. Data was analyzed and fit according to XLfit5 software. IC50 was calculated by the following formula: (IC50=[(ABS test−ABS begin)/(ABS control−ABS begin)]×100).

For data set [6], the target named is T2, BaF3 [EML4-ALK] (Homo sapiens, UniProt Q9UM73).
T2 construct: IC50(nM) ALK (Ba/F3); other: 72 hours, CellTiter-Glo; BaF3 [EML4-ALK]; fused on or other part: Q9HC35 (Echinoderm microtubule-associated protein-like 4)
T2 sequence (Q9UM73 whole entry, change not shown, the tested form may be a part): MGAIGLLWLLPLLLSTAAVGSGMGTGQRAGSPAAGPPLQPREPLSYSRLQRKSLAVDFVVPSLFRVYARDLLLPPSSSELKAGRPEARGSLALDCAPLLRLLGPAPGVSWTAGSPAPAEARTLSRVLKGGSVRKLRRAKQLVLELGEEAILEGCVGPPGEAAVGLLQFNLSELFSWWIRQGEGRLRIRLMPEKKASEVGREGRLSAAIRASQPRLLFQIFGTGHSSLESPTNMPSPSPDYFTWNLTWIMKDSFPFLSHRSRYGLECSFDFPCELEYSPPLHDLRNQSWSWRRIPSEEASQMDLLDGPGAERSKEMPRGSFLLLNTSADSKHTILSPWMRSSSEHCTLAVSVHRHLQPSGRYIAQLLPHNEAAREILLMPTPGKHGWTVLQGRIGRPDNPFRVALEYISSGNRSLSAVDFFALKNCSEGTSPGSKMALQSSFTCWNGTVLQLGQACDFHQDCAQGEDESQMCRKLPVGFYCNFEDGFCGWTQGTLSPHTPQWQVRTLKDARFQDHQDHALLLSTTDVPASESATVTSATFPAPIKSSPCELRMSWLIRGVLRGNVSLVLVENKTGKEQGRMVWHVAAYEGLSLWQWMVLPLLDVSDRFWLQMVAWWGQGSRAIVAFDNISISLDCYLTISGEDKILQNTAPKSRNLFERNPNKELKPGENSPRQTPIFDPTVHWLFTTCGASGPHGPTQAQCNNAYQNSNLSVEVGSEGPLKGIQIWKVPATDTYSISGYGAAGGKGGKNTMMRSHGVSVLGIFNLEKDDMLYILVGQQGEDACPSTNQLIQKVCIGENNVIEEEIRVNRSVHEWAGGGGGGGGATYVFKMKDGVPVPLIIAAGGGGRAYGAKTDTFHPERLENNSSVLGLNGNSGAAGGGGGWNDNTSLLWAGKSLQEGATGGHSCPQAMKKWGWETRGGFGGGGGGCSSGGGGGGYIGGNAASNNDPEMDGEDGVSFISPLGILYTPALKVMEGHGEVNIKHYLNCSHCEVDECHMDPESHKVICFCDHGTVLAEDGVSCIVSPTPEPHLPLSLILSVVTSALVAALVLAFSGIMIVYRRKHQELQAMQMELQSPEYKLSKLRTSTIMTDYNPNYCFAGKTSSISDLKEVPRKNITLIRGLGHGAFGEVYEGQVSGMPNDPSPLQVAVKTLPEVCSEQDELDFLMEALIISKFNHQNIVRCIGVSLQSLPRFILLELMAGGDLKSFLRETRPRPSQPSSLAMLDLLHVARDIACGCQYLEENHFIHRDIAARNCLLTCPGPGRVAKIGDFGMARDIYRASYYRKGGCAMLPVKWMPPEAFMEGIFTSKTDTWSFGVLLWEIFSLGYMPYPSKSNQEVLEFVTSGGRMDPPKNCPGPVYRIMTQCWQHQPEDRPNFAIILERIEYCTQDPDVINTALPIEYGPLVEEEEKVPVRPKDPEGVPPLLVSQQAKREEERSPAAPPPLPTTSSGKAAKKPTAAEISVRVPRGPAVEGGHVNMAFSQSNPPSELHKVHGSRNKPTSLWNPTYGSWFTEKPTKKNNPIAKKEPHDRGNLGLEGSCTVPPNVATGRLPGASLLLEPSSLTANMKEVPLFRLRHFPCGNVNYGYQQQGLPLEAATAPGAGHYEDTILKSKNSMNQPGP
Put plainly: Cytotoxicity test (CellTiter-Glo), BaF3 [EML4-ALK]. It counts as cell-based. Conditions: 72 hours, CellTiter-Glo; read-out: IC50(nM) ALK (Ba/F3). On the procedure:
as §6, §7, §8, §9, §10, §11, §12

For data set [7], the system named is BaF3 [EML4-ALK]. The data set can be described thus: Cytotoxicity test (CellTiter-Glo), BaF3 [EML4-ALK]. It is filed as cell-based. Conditions: Ba/F3 cells. How it is done:
as §6, §7, §8, §9, §10, §11, §12

Data set [8] deals with BaF3 parental. The data set can be described thus: Cytotoxicity test (CellTiter-Glo), BaF3 parental. Conditions: Mus musculus, 72 hours, read-out: IC50(nM) parental (Ba/F3). It counts as cell-based. On the procedure: as §6, §7, §8, §9, §10, §11, §12
The target of data set [9] is ALK [WT] (Homo sapiens, UniProt Q9UM73). Put plainly: Kinase inhibition assay, ALK [WT]. It counts as biochemical. How it is done:
as §13, §14

T1 sequence (Q9UM73 whole entry L1196M, the tested form may be a part): as the sequence (Q9UM73 whole entry, change not shown, the tested form may be a part) above, with L1196M counted along it
Chain of ALK [WT] (Q9UM73 19-1620): as the sequence (Q9UM73 19-1620 L1196M) above, with M1178L counted along it

`COc1cc(CN(C)C)ccc1Nc1ncc(Cl)c(Nc2ccccc2P(C)(C)=O)n1` [Example 1, (2-((5-chloro-2-((4-((dimethylamino)methyl)-2-methoxyphenyl)amino)pyrimidin-4-yl)amino)phenyl)dimethylphosphine oxide]: the microsomal CLint at 1 μM in data set [1] was 43.4 µL/min/mg; in data set [4] it was 10.6 µL/min/mg. Moreover, the figures for the half-life at 1 μM in data set [1] and in data set [4] were 31.9 min and 131 min, respectively. Also, the “Selectivity parental/ALK[L1196M]” value in [2] was less than 50. Moreover, the GI50 is 100 to 200 nM in [3] and 50 to 100 nM in data set [6]. Also, the IC50 is 5 to 10 nM in [5], no less than 1000 nM in [8] and 5 to 10 nM in data set [9]. Moreover, the “Selectivity parental/ALK” value in [7] is less than 50.
For `COc1cc(CCN)ccc1Nc1ncc(Cl)c(Nc2ccccc2P(C)(C)=O)n1` [Example 2, (2-((2-((4-(2-aminoethyl)-2-methoxyphenyl)amino)-5-chloropyrimidin-4-yl)amino)phenyl)dimethylphosphine oxide], the microsomal CLint at 1 μM in [1] amounted to 8.4 µL/min/mg; in [4], 8.7 µL/min/mg. The half-life at 1 μM turned out to be 165 min in [1] and 160 min in data set [4]. For the same compound, the “Selectivity parental/ALK[L1196M]” value in data set [2] is less than 50. Moreover, the GI50 lay within 200 to 1000 nM in [3] and 100 to 200 nM in data set [6]. Further, the IC50 is 2 to 5 nM in data set [5], no less than 1000 nM in [8] and no more than 2 nM in data set [9]. Besides, the “Selectivity parental/ALK” value in data set [7] was less than 50.
For the compound `COc1cc(CCN(C)C)ccc1Nc1ncc(Cl)c(Nc2ccccc2P(C)(C)=O)n1` [Example 3, (2-((5-chloro-2-((4-(2-(dimethylamino)ethyl)-2-methoxyphenyl)amino)pyrimidin-4-yl)amino)phenyl)dimethylphosphine oxide], the microsomal CLint at 1 μM in data set [1] was found to be 50.4 µL/min/mg; in data set [4], 15.4 µL/min/mg. The half-life at 1 μM in data set [1] was 27.5 min; in [4] it was 90.1 min. In data set [2], the “Selectivity parental/ALK[L1196M]” value is reported as less than 50. Further, the figures for the GI50 in data set [3] and in [6] were 100 to 200 nM and 25 to 50 nM, respectively. For the same compound, the IC50 in data set [5] was 2 to 5 nM; in data set [8] it was no less than 1000 nM; in [9] it was no more than 2 nM. Also, the “Selectivity parental/ALK” value in data set [7] lay within 50 to 100.
In the case of `COc1cc(CCN2CCCCC2)ccc1Nc1ncc(Cl)c(Nc2ccccc2P(C)(C)=O)n1` [Example 4, (2-((5-chloro-2-((2-methoxy-4-(2-(piperidin-1-yl)ethyl)phenyl)amino)pyrimidin-4-yl)amino)phenyl)dimethylphosphine oxide], the microsomal CLint at 1 μM in data set [1] came to 34.7 µL/min/mg; in data set [4], 26.7 µL/min/mg. For the same compound, the values for the half-life at 1 μM in data set [1] and in [4] were 39.9 min and 51.9 min, respectively. Besides, the “Selectivity parental/ALK[L1196M]” value in data set [2] is reported as less than 50. Besides, the GI50 in data set [3] was 50 to 100 nM; in [6], less than 25 nM. Moreover, the IC50 is 2 to 5 nM in [5], no less than 1000 nM in [8] and no more than 2 nM in data set [9]. Besides, the “Selectivity parental/ALK” value in data set [7] is 200 to 500.
As to `COc1cc(CCN2CCN(C)CC2)ccc1Nc1ncc(Cl)c(Nc2ccccc2P(C)(C)=O)n1` [Example 5, (2-((5-chloro-2-((2-methoxy-4-(2-(4-methylpiperazin-1-yl)ethyl)phenyl)amino)pyrimidin-4-yl)amino)phenyl)dimethylphosphine oxide], the microsomal CLint at 1 μM was 35.9 µL/min/mg in data set [1] and 17.3 µL/min/mg in data set [4]. Moreover, the half-life at 1 μM in data set [1] came to 38.6 min; in [4], 80 min. Moreover, in [2], the “Selectivity parental/ALK[L1196M]” value is reported as 100 to 200. The figures for the GI50 in data set [3] and in [6] were 25 to 50 nM and less than 25 nM, respectively. In addition, the IC50 was no more than 2 nM in data set [5], no less than 1000 nM in data set [8] and no more than 2 nM in data set [9]. For the same compound, the “Selectivity parental/ALK” value in data set [7] is recorded as 200 to 500.
Take `COc1cc(CCN2CCOCC2)ccc1Nc1ncc(Cl)c(Nc2ccccc2P(C)(C)=O)n1` [Example 6, (2-((5-chloro-2-((2-methoxy-4-(2-morpholinoethyl)phenyl)amino)pyrimidin-4-yl)amino)phenyl)dimethylphosphine oxide]: the microsomal CLint at 1 μM in data set [1] is 85.1 µL/min/mg; in data set [4], 29.1 µL/min/mg. In addition, the half-life at 1 μM in [1] is 16.3 min; in data set [4], 47.6 min. Moreover, the “Selectivity parental/ALK[L1196M]” value in data set [2] is listed as less than 50. Further, the GI50 in [3] was 100 to 200 nM; in [6], less than 25 nM. Besides, the IC50 was 2 to 5 nM in [5], no less than 1000 nM in data set [8] and 2 to 5 nM in data set [9]. In addition, in [7], the “Selectivity parental/ALK” value is given as 200 to 500.
